Test results taken from US20140370048A1, “COMPOSITION FOR TREATMENT OR PREVENTION OF HYPERLIPIDEMIA, CONTAINING ALCOHOL EXTRACTS OF OLIGOPORUS TEPHROLEUCUS” (POSTECH ACADEMY-INDUSTRY FOUNDATION, priority 2011, published 2014).

System: cholesterol absorption in the digestive tract
Assay: Amount of cholesterol absorption into blood from the digestive tract after oral 3H-cholesterol oleate in mice
Format: in vivo
Settings: 8-week old male Balb/c mouse, plasma six hours after administration, extract 20 ml of 10 mg/mL concentrated into 0.1 mL, Orlistat 400 μg (20 mg/kg), FIG. 2
Experimental: Cholesterol oleate (Amersham, 100 μCi/mL) radiolabeled with ^3H was mixed with 1% (w/v) sodium carboxylmethyl cellulose (CMC-Na), 1% (v/v) Tween 80, and a non-labeled cholesterol oleate, and then 0.1 mL of the mixture was forcibly administered into each mouse through an oral zonde so that 1 μCi could be delivered to each mouse. Here, the mouse in the control group (an 8-week old male Balb/c with body weight of 25 g) was treated with 400 μg of Orlistat (20 mg/kg), which has an inhibitory effect against cholesterol absorption, and the mouse in the experimental group (an 8-week old male Balb/c with body weight of 25 g) was treated with 20 ml of the ethanol extract (10 mg/mL) of Oligoporus tephroleucus prepared in the Example after concentrating it into 0.1 mL. Six hours after the administration, blood samples were collected from the mice, and plasma was obtained by centrifuging the blood at […] at the rate of 14000 rpm, and the radioactive dose was measured by a liquid scintillator (Beta counter, Beckman LS1801). The Control group was not treated with anything that may inhibit the absorption of cholesterol. The amount of cholesterol absorption was determined as a relative value by dividing the radioactive dose of each group into the radioactive dose of the control group, in which the radioactive dose of the control group was set at ‘1’.

Compound: CCCCCCCCCCC[C@@H](C[C@@H]1OC(=O)[C@H]1CCCCCC)OC(=O)[C@H](CC(C)C)NC=O [Orlistat]
- inhibitory effect upon the cholesterol absorption (plasma radioactive dose relative to untreated control set at 1): significant inhibitory effect
